Measurements reported in US20250144067A1, “PERSONALIZED STARVATION THERAPY FOR CANCER” (Faeth Therapeutics, Inc., priority 2021, published 2025).
Where a name gives a salt, the structure may show the parent alone.

Columns and labels:
[1] = system: NCI-H292 lung cancer cells; assay: FDA drug screening, complete media vs cholesterol-free media without statin (TABLE 1); assay type: cell-based, human
[2] = system: NCI-H292 lung cancer cells; assay: FDA drug screening, complete media vs cholesterol-free media with simvastatin (TABLE 2); assay type: cell-based, human; settings: for Cholesterol-free media + simvastatin (0.04 μM) / Complete Media: NCI-H292 cells
[3] = NCI-H292 cells, cholesterol-free media without statin
[4] = complete vs cholesterol-free media, […]
[5] = FDA drug library screen, cholesterol-free media with simvastatin 0.04 μM
[6] = FDA drug library screen, complete media
[7] = complete media vs cholesterol-free media + simvastatin (0.04 μM), […]
[8] = NCI-H292 cells, cholesterol-free media without statin, FDA drug library screen
[9] = NCI-H292 cells, complete media, FDA drug library screen
[10] = complete vs cholesterol-free media, >0 enhanced anti-cancer activity, about 0 neutral, <0 antagonist
[11] = cholesterol-free media with simvastatin 0.04 μM, FDA drug library screen (TABLE 2)
[12] = complete media, FDA drug library screen (TABLE 2)
[13] = complete media minus cholesterol-free media + simvastatin (0.04 μM), >0 enhanced anti-cancer activity, about 0 neutral, <0 antagonist
[14] = complete media vs cholesterol-free media + simvastatin (0.04 μM), >0 enhanced anti-cancer activity, about 0 neutral, <0 antagonist
[15] = Complete minus Cholesterol-free, greater than 0 enhanced anti-cancer activity, about 0 neutral, below 0 antagonists
[16] = NCI-H292 cells in cholesterol-free media without statin
[17] = NCI-H292 cells in complete media
[18] = complete media minus cholesterol-free media + simvastatin, >0 enhanced anti-cancer activity, about 0 neutral, <0 antagonist
[19] = Complete minus Cholesterol-free, >0 enhanced anti-cancer activity, about 0 neutral, <0 antagonist
[20] = FDA library drug in cholesterol-free media with simvastatin 0.04 μM
[21] = FDA library drug in complete media
[22] = Complete minus Cholesterol-free, greater than 0 enhanced anti-cancer activity, about 0 neutral, below 0 antagonist
[23] = NCI-H292 cells, FDA drug library screen, cholesterol-free media without statin
[24] = NCI-H292 cells, FDA drug library screen, complete media
[25] = drug in cholesterol-free media with simvastatin 0.04 μM
[26] = cholesterol-free media with simvastatin 0.04 μM, cell growth value in FDA drug screen
[27] = complete media, cell growth value in FDA drug screen

## CCOC(=O)CCC(=O)O[C@H]1[C@H](O[C@@H]2[C@@H](C)[C@H](O[C@H]3C[C@@](C)(OC)[C@@H](O)[C@H](C)O3)[C@@H](C)C(=O)O[C@H](CC)[C@@](C)(O)[C@H](O)[C@@H](C)C(=O)[C@H](C)C[C@@]2(C)O)O[C@H](C)C[C@@H]1N(C)C [Erythromycin Ethylsuccinate]
[1]; [3]
  Cholesterol-free: 1.248
[1]; NCI-H292 cells, complete media
  Complete: 0.8907
[1]; [4]
  Difference: −0.36
[2]; [5]
  Cholesterol-free media + simvastatin (0.04 μM): 1.069
[2]; [6]
  Complete Media: 0.9797
[2]; [7]
  Difference: −0.09

## C=CC(N)CCC(=O)O (stereo not drawn) [Vigabatrin]
[1]; [8]
  Cholesterol-free: 0.7255
[1]; [9]
  Complete: 1.221
[1]; [10]
  Difference: 0.50
[2]; [11]
  Cholesterol-free media + simvastatin (0.04 μM): 0.8099
[2]; [12]
  Complete Media: 0.7743
[2]; [13]
  Difference: −0.04

## OC[C@H]1O[C@@H](c2ccc(Cl)c(Cc3ccc(O[C@H]4CCOC4)cc3)c2)[C@H](O)[C@@H](O)[C@@H]1O [Empagliflozin]
[1]; [8]
  Cholesterol-free: 0.7937
[1]; [9]
  Complete: 1.112
[1]; [10]
  Difference: 0.32
[2]; [5]
  Cholesterol-free media + simvastatin (0.04 μM): 0.9749
[2]; [6]
  Complete Media: 0.8261
[2]; [14]
  Difference: −0.15

## O=C1NC(=O)C(c2ccccc2)(c2ccccc2)N1 [Phenytoin]
[1]; [8]
  Cholesterol-free: 0.8044
[1]; [9]
  Complete: 0.8965
[1]; [10]
  Difference: 0.09
[2]; [5]
  Cholesterol-free media + simvastatin (0.04 μM): 1.316
[2]; [6]
  Complete Media: 1.23
[2]; [14]
  Difference: −0.09

## NCc1ccccc1CC(=O)N[C@@H]1C(=O)N2C(C(=O)O)=C(CSc3nnnn3CC(=O)O)CS[C@H]12 [Ceforanide]
[1]; [15]
  Difference: −0.76
[1]; [16]
  Cholesterol-free: 1.736
[1]; [17]
  Complete: 0.9794
[2]; [5]
  Cholesterol-free media + simvastatin (0.04 μM): 1.034
[2]; [6]
  Complete Media: 1.331
[2]; [18]
  Difference: 0.30

## Sulconazole (nitrate)
[1]; [19]
  Difference: 0.04
[1]; [8]
  Cholesterol-free: 0.9221
[1]; [9]
  Complete: 0.9667
[2]; [5]
  Cholesterol-free media + simvastatin (0.04 μM): 0.3022
[2]; [6]
  Complete Media: 0.9753
[2]; [18]
  Difference: 0.67

## COc1cc(Cc2cnc(N)nc2N)cc(OC)c1OC [Trimethoprim]
[1]; [8]
  Cholesterol-free: 0.567
[1]; [9]
  Complete: 1.096
[1]; [10]
  Difference: 0.53
[2]; [20]
  Cholesterol-free media + simvastatin (0.04 μM): 1.335
[2]; [21]
  Complete Media: 1.064
[2]; [14]
  Difference: −0.27

## O=c1ccn([C@@H]2O[C@H](COP(=O)([O-])OP(=O)([O-])OP(=O)([O-])OP(=O)([O-])OC[C@H]3O[C@@H](n4ccc(=O)[nH]c4=O)[C@H](O)[C@@H]3O)[C@@H](O)[C@H]2O)c(=O)[nH]1.[Na+].[Na+].[Na+].[Na+] [Diquafosol (tetrasodium)]
[1]; [22]
  Difference: −0.16
[1]; [23]
  Cholesterol-free: 0.9096
[1]; [24]
  Complete: 0.7536
[2]; [5]
  Cholesterol-free media + simvastatin (0.04 μM): 1.438
[2]; [6]
  Complete Media: 1.601
[2]; [18]
  Difference: 0.16

## CC(C)OC(=O)CCC/C=C\C[C@@H]1[C@@H](/C=C/C(F)(F)COc2ccccc2)[C@H](O)C[C@@H]1O [Tafluprost]
[1]; [22]
  Difference: −0.18
[1]; [23]
  Cholesterol-free: 0.9541
[1]; [24]
  Complete: 0.7736
[2]; [25]
  Cholesterol-free media + simvastatin (0.04 μM): 1.261
[2]; drug in complete media
  Complete Media: 1.095
[2]; [14]
  Difference: −0.17

## CCCc1nc2c(C)cc(-c3nc4ccccc4n3C)cc2n1Cc1ccc(-c2ccccc2C(=O)O)cc1 [Telmisartan]
[1]; [19]
  Difference: −0.06
[1]; [8]
  Cholesterol-free: 1.319
[1]; [9]
  Complete: 1.255
[2]; [26]
  Cholesterol-free media + simvastatin (0.04 μM): 0.8657
[2]; [27]
  Complete Media: 0.906
[2]; [18]
  Difference: 0.04

## Rupatadine (Fumarate)
[1]; [19]
  Difference: −0.23
[1]; [3]
  Cholesterol-free: 1.308
[2]; [5]
  Cholesterol-free media + simvastatin (0.04 μM): 0.9792
[2]; [6]
  Complete Media: 1.536
[2]; [18]
  Difference: 0.56

## Cc1ccc(Nc2nccc(N(C)c3ccc4c(C)n(C)nc4c3)n2)cc1S(N)(=O)=O [Pazopanib (Hydrochloride)]
[1]; [22]
  Difference: −0.12
[1]; [23]
  Cholesterol-free: 1.089
[1]; [24]
  Complete: 0.9723
[2]; [5]
  Cholesterol-free media + simvastatin (0.04 μM): 0.5325
[2]; [6]
  Complete Media: 1.206
[2]; [18]
  Difference: 0.67

## C[C@@H](Oc1cc(-c2cnn(C3CCNCC3)c2)cnc1N)c1c(Cl)ccc(F)c1Cl [Crizotinib]
[1]; [8]
  Cholesterol-free: 0.1411
[1]; [9]
  Complete: 0.3735
[1]; [10]
  Difference: 0.23
[2]; [26]
  Cholesterol-free media + simvastatin (0.04 μM): 0.4044
[2]; [27]
  Complete Media: 0.5269
[2]; [18]
  Difference: 0.12

## O=C1c2cccc(O)c2C(=O)c2c(O)cccc21 [Danthron]
[1]; [22]
  Difference: −0.15
[1]; [23]
  Cholesterol-free: 0.9427
[1]; [24]
  Complete: 0.7921
[2]; [25]
  Cholesterol-free media + simvastatin (0.04 μM): 1.634
[2]; drug in complete media
  Complete Media: 1.469
[2]; [14]
  Difference: −0.16

## CN(C)C(=O)c1cc2cnc(Nc3ccc(N4CCNCC4)cn3)nc2n1C1CCCC1 [Ribociclib]
[1]; [19]
  Difference: −0.30
[1]; [3]
  Cholesterol-free: 1.15
[1]; NCI-H292 cells, complete media
  Complete: 0.8537
[2]; [26]
  Cholesterol-free media + simvastatin (0.04 μM): 0.6195
[2]; [27]
  Complete Media: 0.7338
[2]; [18]
  Difference: 0.11

## C[C@]1(COc2ccc(N3CCC(Oc4ccc(OC(F)(F)F)cc4)CC3)cc2)Cn2cc([N+](=O)[O-])nc2O1 [Delamanid]
[1]; [19]
  Difference: −0.22
[1]; [3]
  Cholesterol-free: 1.106
[1]; NCI-H292 cells, complete media
  Complete: 0.8827
[2]; [11]
  Cholesterol-free media + simvastatin (0.04 μM): 1.352
[2]; [12]
  Complete Media: 1.345
[2]; [13]
  Difference: −0.01

## Atosiban (acetate)
[1]; [3]
  Cholesterol-free: 1.199
[1]; NCI-H292 cells, complete media
  Complete: 0.8162
[1]; [4]
  Difference: −0.38
[2]; [20]
  Cholesterol-free media + simvastatin (0.04 μM): 1.587
[2]; [7]
  Difference: −0.52

## CC1=C(/C=C/C(C)=C/C=C/C(C)=C/C=C/C=C(C)/C=C/C=C(C)/C=C/C2=C(C)CCCC2(C)C)C(C)(C)CCC1 [β-Carotene]
[1]; [15]
  Difference: −0.67
[1]; [16]
  Cholesterol-free: 1.322
[1]; [17]
  Complete: 0.6506
[2]; [20]
  Cholesterol-free media + simvastatin (0.04 μM): 0.923
[2]; [21]
  Complete Media: 0.6081
[2]; [14]
  Difference: −0.31

## Nc1c(Br)cc(Br)cc1CN[C@H]1CC[C@H](O)CC1 [Ambroxol (hydrochloride)]
[1]; [3]
  Cholesterol-free: 1.285
[1]; NCI-H292 cells, complete media
  Complete: 0.8347
[1]; complete vs cholesterol-free media, greater than 0 enhanced anti-cancer activity, about 0 neutral, below 0 antagonists
  Difference: −0.45
[2]; [11]
  Cholesterol-free media + simvastatin (0.04 μM): 1.005
[2]; [12]
  Complete Media: 0.9822
[2]; [13]
  Difference: −0.02

## Metaproterenol (hemisulfate)
[1]; [8]
  Cholesterol-free: 0.8425
[1]; [10]
  Difference: 0.09
[2]; [25]
  Cholesterol-free media + simvastatin (0.04 μM): 1.002
[2]; drug in complete media
  Complete Media: 0.7891
[2]; [14]
  Difference: −0.21

## CO[C@@H]1[C@@H](OC(N)=O)[C@@H](O)[C@H](Oc2ccc3c(O)c(NC(=O)c4ccc(O)c(CC=C(C)C)c4)c(=O)oc3c2C)OC1(C)C [Novobiocin (Sodium)]
[1]; [22]
  Difference: −0.12
[1]; [23]
  Cholesterol-free: 1.193
[1]; [24]
  Complete: 1.072
[2]; [5]
  Cholesterol-free media + simvastatin (0.04 μM): 1.139
[2]; [6]
  Complete Media: 1.056
[2]; [14]
  Difference: −0.08

## C[C@]12CC[C@@H]3c4ccc(OS(=O)(=O)O)cc4CC[C@H]3[C@@H]1CCC2=O [Estropipate]
[1]; [15]
  Difference: −0.48
[1]; [16]
  Cholesterol-free: 1.475
[1]; [17]
  Complete: 0.9927
[2]; [5]
  Cholesterol-free media + simvastatin (0.04 μM): 0.9313
[2]; [6]
  Complete Media: 1.077
[2]; [18]
  Difference: 0.15
